# Results from patent US20250163387A1, “HUMAN PITUITARY NEUROENDOCRINE TUMOR ORGANOIDS AND METHODS OF MAKING AND USING THE SAME” (ARIZONA BOARD OF REGENTS OF THE UNIVERSITY OF ARIZONA, A …, priority 2022, published 2025).
# Numbered stars: 1 amine (or outer) side, 2 acyl side, 3 side chain; on linkers, the order of the positions; unused ones are H or OH. Square brackets hold non-standard residues; d marks the D form. Side chains are listed from the residue outwards. Peptide text beside a SMILES is read from it. * marks the point of attachment. Ethylenediamine = C(CN[*:2])N[*:1]; Hyp = O=C(O)[C@@H]1C[C@@H](O)CN1; Phg = N[C@H](C(=O)O)c1ccccc1; CO = O=C([*:1])[*:2]; Bn = c1ccc(C*)cc1
# Columns and labels:
# hPITO37 = assay: Spectral flow cytometry (SSTR2, SSTR5, ACTH, zombie); type: cell-based, human; conditions: Pas 837.5 nM, Mife 2.85 nM
# Procedure: The multicolor flow cytometry panel was designed using the Cytek®Full Spectrum Viewer online tool to calculate the similarity index. The organoids were harvested in cold SFDM media and centrifuged at 400×g for 5 minutes. Supernatant was discarded and organoids were dissociated to single cells using Accutase® (Thermo Fisher Scientific 00-4555-56). The enzymatic reaction was stopped using prewarmed DPBS and cells were then centrifuged at 400×g for 5 minutes and incubated with fluorochrome-conjugated/unconjugated primary surface or cytoplasmic antibodies at 4° C. for 30 minutes. Cells were then washed with Cell Staining Buffer (BioLegend #420-201) and incubated with secondary antibodies at 4° C. for 30 minutes. Cells were fixed using Cytofix/Cytoperm™ Fixation/Permeabilization Solution (BD Biosciences #554714) at 4° C. for 20 minutes, followed by washing with Fixation/Permeabilization wash buffer. Cells were then labeled with fluorochrome-conjugated/unconjugated intracellular primary antibodies at 4° C. for 30 minutes, washed and incubated with secondary antibodies at 4° C. for 30 minutes. Cells resuspended in cell staining buffer and fluorescence measured using the Cytek Aurora 5 Laser Spectral Flow Cytometer. An unstained cell sample was fixed and used as reference control. UltraComp eBeads™, Compensation Beads (Thermo Fisher Scientific #01-2222-42) were stained with the individual antibodies and used as single stain control for compensation and gating. Data was acquired using the Cytek™ Aurora and analyzed using Cytobank software (Beckman Coulter, Indianapolis, IN).
# hPITO33 = assay: Drug dose response, MTS cell viability assay; type: cell-based, human
# hPITO35 = conditions: for Dose response (cell viability): organoid 35, compared to Cabergoline
# Procedure: (§1) Organoids were grown in Matrigel™ domes within 96-well round-bottom culture plates. Recombinant human SHH was removed from the pituitary organoid growth media, 24 hrs. prior to drug treatment. Organoids were treated with either vehicle (DMSO), cabergoline (Selleckchem S5842), ketoconazole (Selleckchem S1353), roscovitine (Selleckchem S1153), GANT61 (Stemcell Technologies 73692), pasireotide (TargetMol TP2207), mifeprostone (Selleckchem S2606), etomidate (Selleckchem S1329), mitotane (Selleckchem S1732), metyropane (Selleckchem S5416), or osilodrostat (Selleckchem S7456) at concentrations of 0, 1, 10, 100, 1000, and 10000 nM for 72 hours. Percent cell viability was measured using an MTS assay (Promega G3580). Absorbance was measured at 490 nm and normalized to the vehicle. Concentrations were plotted in a logarithmic scale, and a nonlinear dose-response curve regression was calculated using GraphPad Prism. An IC50 value for each drug treatment was determined based on the dose response curve using GraphPad Prism analysis software.
# hPITO34 = system: hPITO34
# Procedure: as §1
# iPSC^USP48MV organoids [1] = assay: Proliferation by EdU uptake; type: cell-based, human; conditions: 100 nM
# Procedure: (§2) Organoids were immunostained using published protocols by our laboratory. Proliferation was measured by using 5-ethynyl-2'-deoxyuridine (EdU) incorporation according to the Manufacturer's protocol (Click-IT EdU Alexa Fluor 555 Imaging Kit, Thermo Fisher Scientific C10338). Costaining was performed by blocking fixed organoids with 2% donkey serum (Jackson Immuno Research, #017-000-121) diluted in 0.01% PBST for 1 hr. at room temperature. Organoids were then incubated overnight at 4° C. with primary antibodies followed by secondary antibodies and Hoechst (Thermo Fisher Scientific H1399, 1:1000 in 0.01% PBST) for 1 hr at room temperature. Human specific primary antibodies used included: rabbit anti-ACTH (Thermo Fisher Scientific 701293, 1:250), rabbit anti-Synaptophysin (Thermo Fisher Scientific PA5-27286, 1:100), […] (Thermo Fisher Scientific PA5-98650, 1:50), rabbit anti-LH (Thermo Fisher Scientific PA5-102674, 1:100), mouse anti-FSH (Thermo Fisher Scientific MIF2709, 1:100), mouse anti-PRL (Thermo Fisher Scientific CF500720, 1:100), Alexa Flour conjugated GH (NB500-364AF647, 1:100) and mouse anti-CAM5.2 (SIGMA […]-95, 1:250). The secondary antibodies used included Alexa Fluor 488 Donkey Anti Rabbit IgG (H+L) (Thermo Fisher Scientific A21206, 1:100) or Alexa Fluor 647 Donkey Anti Mouse IgG (H+L) (Thermo Fisher Scientific A31571, 1:100). Organoids were visualized and images acquired by confocal microscopy using the Nikon CrestV2 Spinning Disk. Fluorescence intensity and percentage of EdU positive cells of total cells, were calculated using Nikon Elements Software (Version 5.21.05).
# iPSC^ctrl organoids [2] = assay: Proliferation by EdU uptake; type: cell-based, human; conditions: 100 nM
# Procedure: as §2
# SSTR5 [3] = target: SSTR5 (Homo sapiens, UniProt P35346); conditions: cited from earlier work
# [4] = monotherapy; cited from earlier work
# iPSC^USP48MV organoids [5] = assay: ACTH secretion ELISA of conditioned media; type: cell-based, human; conditions: for effect on ACTH secretion in response to Mifepristone: 100 nM with Mife 500 nM
# Procedure: (§3) Concentration of secreted ACTH in conditioned media that was collected from organoid cultures was measured using the Human ACTH ELISA Kit (Novus Biologicals, NBP2-66401) according to the manufacturer's protocol. The enzyme-substrate reaction was measured spectrophotometrically (BioTek Gen5 Micro Plate Reader Version 3.11) at a wavelength of 450 nm and the ACTH concentration (pg/mL) was interpolated using a standard curve with a 4-parameter logistic regression analysis using GraphPad Prism (Version 9.2.0).
# iPSC^ctrl organoids [6] = assay: ACTH secretion ELISA of conditioned media; type: cell-based, human; conditions: for effect on ACTH secretion in response to Mifepristone: 100 nM with Mife 500 nM
# Procedure: as §3
# [7] = system: hPITOs generated from CD patients; assay: High-throughput drug screen, MTS assay; type: cell-based, human; conditions: 1 uM, 72 hrs
# Procedure: Patient adenoma-derived pituitary organoids were grown in 96-well plates and treated with 147 small molecules taken from the NCI AOD9 compound library for 72 hrs. (https://dtp.cancer.gov/organization/dscb/obtaining/available_plates.html). Drugs were diluted from 10 mM DMSO stock plates into 100 uM DMSO working stocks with a final concentration of 1 uM. All vehicle controls were treated with 0.1% DMSO. Organoid proliferation was measured using CellTiter 96® AQueous One Solution Cell Proliferation Assay kit (MTS, Promega, G3582) according to the manufacturer's instruction. Organoid death was calculated based on the absorbance readings at 490 nm, collected from the MTS assay relative to the vehicle controls. Drug screens were performed with biological replicates in same screen. Drugs were selected based on their ability to target key signaling pathways and clinical relevance to the treatment. Drug sensitivity is represented by cell viability and is significant at <0.5 suppressive effect of the drugs. The percent cell viability relative to the vehicle control was calculated. Correlation coefficient across each organoid were calculated using Pearson method to assess confidence in replication. Variance Component was detected for each drug across all organoids. A random effect model was run with a single random factor for each drug and estimated variance was calculated by rejecting the null hypothesis that there isn't variation among samples. The drug responses were grouped by variance factor large (vc>100), median (100>vc>50), and small (vc<50). Heatmap was used to display the differential responses in cell viability for the drugs.
# Tumor recurrence can occur in as many as 30-50% of CD patients after successful surgical treatment. Unfortunately, bilateral adrenalectomy is the chosen surgical treatment for patients with persistent CD [35]. Bilateral adrenalectomy leads to the increased risk for development of Nelson's syndrome (progressive hyperpigmentation due to ACTH secretion and expansion of the residual pituitary tumor). Although the risk of developing Nelson's syndrome following adrenalectomy can be reduced by 50% with stereotactic radiotherapy, there is a need to develop medical therapies that directly target the pituitary adenoma. Thus, we established a high-throughput drug screening assay using patient-derived pituitary organoids. […] The replicates behaved consistently with the drug response with the correlation scores of >0.8 for these samples (FIG. 3a). We estimated the variance component for each drug across all organoids. […] The drug responses were grouped by variance factor large, median, and small. The larger the variance the more variable is the drug response across the organoids. […]
# [8] = system: transcriptional regulation of POMC by Gli1; assay: Gene ChIP assay in hPITO cultures expressing USP8 and USP48 mutations; type: cell-based, human
# SSTR5 [9] = assay: Differential expression of SSTR5 in iPSC generated pituitary tumor organoids; type: cell-based, human; conditions: for effect on relacorilant stimulated SSTR5: iPSC organoids; for effect of pretreatment on Mifepristone-induced SSTR5 expression / differential expression of SSTR5: iPSC^ctrl organoids; for effect of pretreatment on Mifepristone-induced SSTR5 expression: GANT 5 uM, Keto 10 uM; for differential expression of SSTR5: drug alone (Mife 500 nM, GANT 5 uM, Keto 10 uM, Dexa 100 nM)
# SSTR2 = assay: Differential expression of SSTR2 in iPSC generated pituitary tumor organoids; type: cell-based, human; conditions: for effect on relacorilant stimulated SSTR2: iPSC organoids; for effect of pretreatment on Mifepristone-induced SSTR2 expression / differential expression of SSTR2: iPSC^ctrl organoids; for effect of pretreatment on Mifepristone-induced SSTR2 expression: GANT 5 uM, Keto 10 uM; for differential expression of SSTR2: drug alone (Mife 500 nM, GANT 5 uM, Keto 10 uM, Dexa 100 nM)
# [10] = greater magnitude than Octreotide plus relacorilant
# Chain of SSTR5 (Homo sapiens, UniProt P35346) (P35346 whole entry): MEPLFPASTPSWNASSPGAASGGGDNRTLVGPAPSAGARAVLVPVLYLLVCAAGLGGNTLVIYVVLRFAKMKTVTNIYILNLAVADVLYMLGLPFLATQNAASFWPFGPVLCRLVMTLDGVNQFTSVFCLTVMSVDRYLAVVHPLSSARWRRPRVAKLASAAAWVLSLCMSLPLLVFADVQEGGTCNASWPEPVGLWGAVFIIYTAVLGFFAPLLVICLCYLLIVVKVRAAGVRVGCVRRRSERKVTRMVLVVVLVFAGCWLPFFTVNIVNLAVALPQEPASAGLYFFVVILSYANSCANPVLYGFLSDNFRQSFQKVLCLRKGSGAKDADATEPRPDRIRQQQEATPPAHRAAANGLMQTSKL
smiles,measurement,setting,value
NCCCC[C@@H]1NC(=O)[C@@H](Cc2c[nH]c3ccccc23)NC(=O)[C@H](c2ccccc2)NC(=O)[C@@H]2C[C@@H](OC(=O)NCCN)CN2C(=O)[C@H](Cc2ccccc2)NC(=O)[C@H](Cc2ccc(OCc3ccccc3)cc2)NC1=O [Pasireotide] (cyclo([Hyp]([CO-Ethylenediamine])[Phg][dW]KY(Bn)F)),effect of pretreatment on Mife-increased number of ACTH expressing cells,hPITO37,not inhibited
same,IC50,"hPITO33; hPITO33, 72 hours, MTS cell viability",1200 nM
same,IC50,"hPITO35; hPITO35, 72 hours, MTS cell viability",1000 nM
same,IC50,"hPITO34; hPITO34, 72 hours, MTS cell viability",6.1 nM
same,effect of pretreatment on the proliferative response to Mife,iPSC^USP48MV organoids [1],no effect
same,effect of pretreatment on the proliferative response to Mife,iPSC^ctrl organoids [2],no effect
same,binding to SSTR5,SSTR5 [3],high-affinity binding
same,patients with CD in whom cortisol is normalized,[4],up to 42%
same,effect on ACTH secretion in response to Mifepristone,iPSC^USP48MV organoids [5],significantly reduced
same,hormone (ACTH) secretion in combination with relacorilant,iPSC^USP48MV organoids [5]; [10],reduced hormone secretion
same,effect on ACTH secretion in response to Mifepristone,iPSC^ctrl organoids [6],significantly reduced
same,hormone (ACTH) secretion in combination with relacorilant,iPSC^ctrl organoids [6]; [10],reduced hormone secretion
C=CCN1C[C@H](C(=O)N(CCCN(C)C)C(=O)NCC)C[C@@H]2c3cccc4[nH]cc(c34)C[C@H]21 [cabergoline],Dose response (cell viability),"hPITO33; organoid 33, compared to Metyrapone and osilodrostat",better response at lower dose
same,Dose response (cell viability),"hPITO34; organoid 34, compared to Metyrapone and osilodrostat",better response at lower dose
same,response of the adenoma cells within the organoids,"[7]; hPITO7, 10 and 25",~0%
same,response of the adenoma cells within the organoids,[7]; hPITO34 and hPITO35,50%
CN(C)c1ccccc1CN1CCCN(Cc2ccccc2N(C)C)C1c1ccncc1 [GANT61],transcriptional regulation of POMC by Gli1 (ChIP),[8],blocked
same,effect on relacorilant stimulated SSTR5,SSTR5 [9],inhibited
same,effect of pretreatment on Mifepristone-induced SSTR5 expression,SSTR5 [9],reduced
same,differential expression of SSTR5,SSTR5 [9],no effect
same,effect on relacorilant stimulated SSTR2,SSTR2,inhibited
same,effect of pretreatment on Mifepristone-induced SSTR2 expression,SSTR2,reduced
same,differential expression of SSTR2,SSTR2,no effect
CC(C)(C(=O)c1cccnc1)c1cccnc1 [Metyrapone],Dose response (cell viability),hPITO35,better responses than Cabergoline
CC(=O)N1CCN(c2ccc(OCC3COC(Cn4ccnc4)(c4ccc(Cl)cc4Cl)O3)cc2)CC1 (centres unmarked) [ketoconazole],effect on relacorilant stimulated SSTR5,SSTR5 [9],failed to block
same,effect of pretreatment on Mifepristone-induced SSTR5 expression,SSTR5 [9],no effect
same,differential expression of SSTR5,SSTR5 [9],no effect
same,effect on relacorilant stimulated SSTR2,SSTR2,failed to block
same,effect of pretreatment on Mifepristone-induced SSTR2 expression,SSTR2,no effect
same,differential expression of SSTR2,SSTR2,no effect
N#Cc1ccc([C@H]2CCc3cncn32)c(F)c1 [osilodrostat],Dose response (cell viability),hPITO35,better responses than Cabergoline
C[C@@H](O)[C@@H]1NC(=O)[C@H](CCCCN)NC(=O)[C@@H](Cc2c[nH]c3ccccc23)NC(=O)[C@H](Cc2ccccc2)NC(=O)[C@@H](NC(=O)[C@H](N)Cc2ccccc2)CSSC[C@@H](C(=O)N[C@H](CO)[C@@H](C)O)NC1=O [Octreotide],effect of pretreatment on the proliferative response to Mife,iPSC^USP48MV organoids [1],inhibited
same,effect of pretreatment on the proliferative response to Mife,iPSC^ctrl organoids [2],inhibited
same,effect on ACTH secretion in response to Mifepristone,iPSC^USP48MV organoids [5],significantly reduced
same,effect on ACTH secretion in response to Mifepristone,iPSC^ctrl organoids [6],significantly reduced
